From patent US10227347B2, “Purinyl-N-hydroxyl pyrimidine formamide derivative, preparation methods and uses thereof” (Guizhou Bailing Group Pharmaceutical CO., LTD., priority 2015, dated 2019)
Read-outs that look alike come from different tables or passages of the source.

What was measured:
HDAC1 = molecular target: T1, HDAC1 (Homo sapiens, UniProt Q13547); experiment: In vitro HDAC1 enzymatic activity inhibition (Lys-Ac-AMC substrate); format: biochemical
T1 construct: purchased BPS Bioscience
T1 sequence (Q13547 whole entry, species assumed): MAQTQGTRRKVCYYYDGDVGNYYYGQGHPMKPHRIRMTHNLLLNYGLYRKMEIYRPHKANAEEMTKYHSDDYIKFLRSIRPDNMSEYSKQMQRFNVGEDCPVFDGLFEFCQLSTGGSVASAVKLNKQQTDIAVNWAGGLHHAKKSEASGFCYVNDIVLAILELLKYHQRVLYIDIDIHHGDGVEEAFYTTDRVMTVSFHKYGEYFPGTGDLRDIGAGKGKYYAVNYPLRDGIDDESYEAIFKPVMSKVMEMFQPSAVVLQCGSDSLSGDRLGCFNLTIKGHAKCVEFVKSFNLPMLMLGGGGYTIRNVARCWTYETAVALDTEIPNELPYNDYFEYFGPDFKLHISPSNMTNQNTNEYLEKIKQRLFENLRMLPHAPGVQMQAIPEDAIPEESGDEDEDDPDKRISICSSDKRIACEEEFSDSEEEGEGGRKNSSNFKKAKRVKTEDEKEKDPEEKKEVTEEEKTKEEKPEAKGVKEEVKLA
Description: Determining the inhibition capability to HDAC activity through the substrate method of fluorophore 4-amino-7-coumarin coupled Ac-peptide (Lys-Ac-AMC). HDAC1 protein is purchased from BPS Bioscience Company; the reaction buffer system is a modified tris(hydroxymethyl)aminomethane (TRIS) buffer (pH7.0). All small molecule compounds are prepared and dissolved by 100% DMSO (dimethyl sulfoxide). HDAC is prepared into the buffer as per certain concentration to be served as the enzyme solution; trypsin and the fluorophore 4-amino-7-coumarin coupled Ac-peptide substrate are prepared into the buffer as per certain concentration to be served as the substrate solution. Adding the compound into the reaction wells of the 384 well plate at the designed concentration, then adding 15 μL HDAC solution into the reaction wells (adding 15 μL blank buffer into the control well 0) for incubation under ambient temperature for 15 min; then adding 10 μL substrate solution to start reaction; during the reaction, the final concentration of HDAC1 protein is 6 nM, trypsin 0.05 μM and Ac-peptide 8 μM.
(§1) Calculating the value of IC50 as per the formula: Y=background data+(top data−background data)/(1+10^((Log IC50−X)*rate of curve))
Where, Y refers to the inhibition ratio (%) and X refers to the compound concentration. […]
Analyzing the result data with the software GraphPad Prism and calculating the value of IC50 as per the formula: Y=background data+(top data−background data)/(1+10^((Log IC50−X)*rate of curve)). Where, Y refers to the inhibition ratio (%) and X refers to the compound concentration.

PI3Kα = molecular target: T2, PI3Kα (Homo sapiens, UniProt P42336); experiment: PI3Kα activity inhibition (Kinase-Glo); format: biochemical; settings: Table 1, graded; read-out: PI3Kα IC50
T2 construct: purchased Invitrogen PV4788
T2 sequence (P42336 whole entry, species assumed): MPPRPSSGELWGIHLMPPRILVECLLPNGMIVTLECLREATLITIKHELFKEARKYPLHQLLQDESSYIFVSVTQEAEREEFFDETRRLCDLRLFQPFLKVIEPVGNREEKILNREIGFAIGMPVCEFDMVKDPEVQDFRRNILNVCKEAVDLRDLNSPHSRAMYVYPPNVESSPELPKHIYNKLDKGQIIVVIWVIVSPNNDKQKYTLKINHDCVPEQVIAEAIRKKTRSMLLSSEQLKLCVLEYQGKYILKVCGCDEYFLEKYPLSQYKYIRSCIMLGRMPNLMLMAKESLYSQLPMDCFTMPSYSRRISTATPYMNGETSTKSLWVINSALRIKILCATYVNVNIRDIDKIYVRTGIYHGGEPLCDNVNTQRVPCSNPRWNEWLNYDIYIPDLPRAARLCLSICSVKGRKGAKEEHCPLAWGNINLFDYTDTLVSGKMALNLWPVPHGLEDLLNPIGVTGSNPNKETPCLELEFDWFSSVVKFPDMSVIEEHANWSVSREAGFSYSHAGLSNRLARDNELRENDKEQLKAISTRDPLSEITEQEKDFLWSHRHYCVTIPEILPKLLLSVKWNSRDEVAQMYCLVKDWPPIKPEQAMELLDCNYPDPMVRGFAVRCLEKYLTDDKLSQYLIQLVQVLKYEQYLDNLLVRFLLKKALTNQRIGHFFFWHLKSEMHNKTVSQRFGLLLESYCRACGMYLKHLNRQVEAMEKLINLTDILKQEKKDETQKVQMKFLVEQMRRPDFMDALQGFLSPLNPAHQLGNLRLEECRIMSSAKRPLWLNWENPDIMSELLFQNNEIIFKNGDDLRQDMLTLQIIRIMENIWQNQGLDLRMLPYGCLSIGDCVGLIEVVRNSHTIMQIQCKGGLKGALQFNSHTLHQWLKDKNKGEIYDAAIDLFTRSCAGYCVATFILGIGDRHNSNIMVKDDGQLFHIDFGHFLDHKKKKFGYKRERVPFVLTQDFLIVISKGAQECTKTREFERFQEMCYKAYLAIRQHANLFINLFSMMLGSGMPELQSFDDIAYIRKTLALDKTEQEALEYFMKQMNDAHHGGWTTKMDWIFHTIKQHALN
T2 sequence (P27986 whole entry partner, species assumed): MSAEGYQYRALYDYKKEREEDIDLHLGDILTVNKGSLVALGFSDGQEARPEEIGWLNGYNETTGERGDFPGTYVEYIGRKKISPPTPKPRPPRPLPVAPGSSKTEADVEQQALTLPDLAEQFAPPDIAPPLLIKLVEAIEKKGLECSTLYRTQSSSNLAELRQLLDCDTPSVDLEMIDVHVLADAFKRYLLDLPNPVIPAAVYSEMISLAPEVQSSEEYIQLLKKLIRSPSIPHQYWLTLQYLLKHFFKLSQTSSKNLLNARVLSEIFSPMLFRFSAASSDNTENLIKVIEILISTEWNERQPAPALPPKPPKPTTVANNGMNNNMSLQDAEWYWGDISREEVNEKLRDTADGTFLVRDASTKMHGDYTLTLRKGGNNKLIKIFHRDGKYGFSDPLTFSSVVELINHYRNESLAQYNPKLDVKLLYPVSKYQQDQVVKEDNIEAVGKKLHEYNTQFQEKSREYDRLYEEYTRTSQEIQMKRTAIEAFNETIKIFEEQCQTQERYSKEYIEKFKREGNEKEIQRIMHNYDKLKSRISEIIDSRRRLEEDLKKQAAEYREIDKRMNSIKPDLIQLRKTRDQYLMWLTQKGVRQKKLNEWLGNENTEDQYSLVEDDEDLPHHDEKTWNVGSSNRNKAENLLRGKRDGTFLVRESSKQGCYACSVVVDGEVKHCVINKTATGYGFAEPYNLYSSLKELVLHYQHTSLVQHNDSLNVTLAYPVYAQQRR
Description: Detecting the inhibition capability of the compound to PI3Kα and PI3Kδ activities with Kinase-Glo (purchased from Promege Company; Catalog No.: V3771). […] The reaction system also comprises substrates as PIP2 (4, 5-diphosphoinositide, purchased from Life Technologies Company) and ATP (triphosadenine, purchased from Sigma Company). The reaction buffer system comprises 50 mM HEPES (4-hydroxyethylpiperazine ethane sulfonic acid), 3 mM MgCl2, 1 mM EGTA (ethylene glycol bis(2-amino ethylether)quadrol), 100 mM NaCl, 0.03% CHAPS (3-[3-(cholamidopropyl)dimethylamino]-1-propanesulfonic acid), 2 mM DTT (dithiothreitol). The pH value of the reaction buffer is 7.5. […] Mixing the system evenly for incubation under ambient temperature (for 1 h in PI3Kα test and for 2 h in PI3Kδ test). After incubation, adding 10 μL Kinase-Glo which has been preheated to ambient temperature into each reaction well to terminate the reaction; shaking it in dark place for 15 min after it is mixed evenly, then measuring the fluorescence intensity with a microplate reader and analyzing the result data with the software GraphPad Prism.
as §1
Where, Y refers to the inhibition ratio (%) and X refers to the compound concentration.

[1] = Table 1, graded, read-out: HDAC1 IC50
[2] = read-out: inhibition value IC50 to the activity of HDAC1

| Compound | IC50 (HDAC1; [1]) [µM] | IC50 (PI3Kα) [µM] | IC50 (HDAC1; [2]) [µM] | IC50 (HDAC1) [µM] |
| --- | --- | --- | --- | --- |
| CCCCN(Cc1nc2c(N3CCOCC3)nc(-c3ccc(NC)cc3)nc2n1C)c1ncc(C(=O)NO)cn1 [CLJ-47, N-hydroxy-2-(((2-(4-methylaminophenyl)-9-methyl-6-morpholine-9H-purine-8-yl)methyl)(butyl)amino)pyrimidine-5-formamide] | 1 to 10 | > 10 | – | – |
| CN(Cc1nc2c(N3CCOCC3)nc(-c3cccc(C(N)=O)c3)nc2n1C)c1ncc(C(=O)NO)cn1 [CLJ-64, 2-(((2-(3-carbamoylphenyl)-9-methyl-6-morpholine-9H-purine-8-yl))methyl(methyl)amino)-N-hydroxyl pyrimidine-5-formamide] | < 0.1 | > 10 | – | – |
| CN(Cc1nc2c(N3CCOCC3)nc(-c3ccc(CN4CCOCC4)cc3)nc2n1C)c1ncc(C(=O)NO)cn1 [CLJ-67] | < 0.001 | > 10 | < 0.001 | – |
| CN(Cc1nc2c(N3CCOCC3)nc(-c3cccc(S(=O)(=O)NCO)c3)nc2n1C)c1ncc(C(=O)NO)cn1 [CLJ-59, 2-(((2-(3-(N-(hydroxymethyl)sulfonamide)phenyl)-9-methyl-6-morpholine-9H-purine-8-yl))methyl(methyl)amino)-N-hydroxyl pyrimidine-5-formamide] | < 0.1 | > 10 | – | – |
| CCc1ccc(-c2nc(N3CCOCC3)c3nc(CN(C)c4ncc(C(=O)NO)cn4)n(C)c3n2)cc1 [CLJ-61, 2-(((2-(4-ethylphenyl)-9-methyl-6-morpholine-9H-purine-8-yl))methyl(methyl)amino)-N-hydroxyl pyrimidine-5-formamide] | < 0.1 | > 10 | – | – |
| COc1ccc(-c2nc(N3CCNCC3)c3nc(CN(C)c4ncc(C(=O)NO)cn4)n(C)c3n2)cc1 [CLJ-69, N-hydroxy-2-(((2-(4-methoxyphenyl)-9-methyl-6-(piperazine-1-yl)-9H-purine-8-yl)methyl)(methyl)amino)pyrimidine-5-formamide] | < 0.1 | > 10 | – | – |
| CN(Cc1nc2c(N3CCOCC3)nc(-c3ccc(S(=O)(=O)NCCCCl)cc3)nc2n1C)c1ncc(C(=O)NO)cn1 [CLJ-58, 2-(((2-(4-(N-(3-chloropropyl)sulfonamide)phenyl)-9-methyl-6-morpholine-9H-purine-8-yl))methyl(methyl)amino)-N-hydroxyl pyrimidine-5-formamide] | < 0.1 | > 10 | – | – |
| COc1ccc(-c2nc(N3CCOCC3)c3nc(CNc4ncc(C(=O)NO)cn4)n(C)c3n2)cc1 [CLJ-34, N-hydroxy-2-(((2-(4-methoxyphenyl)-9-methyl-6-morpholine-9H-purine-8-yl)methyl)amino)pyrimidine-5-formamide] | < 0.1 | > 10 | – | – |
| CCCn1c(CN(C)c2ncc(C(=O)NO)cn2)nc2c(N3CCOCC3)nc(-c3ccc(N)cc3)nc21 [CLJ-45, N-hydroxy-2-(((2-(4-aminophenyl)-6-morpholino-9-propyl-9H-purine-8-yl)methyl)(methyl)amino)pyrimidine-5-formamide] | 1 to 10 | > 10 | – | – |
| 2-(((2-(2-(3-(1-hydroxyethyl)2-phenyl)-9-methyl-6-morpholine-9H-purine-8-yl))methyl(methyl)amino)-N-hydroxyl pyrimidine-5-formamide [CLJ-39] | < 0.1 | > 10 | – | – |
| CN(Cc1nc2c(N3CCOCC3)nc(-c3cccc(CO)c3)nc2n1C)c1ncc(C(=O)NO)cn1 [CLJ-40, 2-(((2-(3-(hydroxymethyl)phenyl)-9-methyl-6-morpholine-9H-purine-8-yl))methyl(methyl)amino)-N-hydroxyl pyrimidine-5-formamide] | < 0.1 | > 10 | – | – |
| CN(Cc1nc2c(N3CCOCC3)nc(-c3ccc(C(C)(C)C)cc3)nc2n1C)c1ncc(C(=O)NO)cn1 [CLJ-63] | < 0.1 | > 10 | – | – |
| CC(C)COc1ccc(-c2nc(N3CCOCC3)c3nc(CN(C)c4ncc(C(=O)NO)cn4)n(C)c3n2)cc1 [CLJ-43, 2-(((2-(4-isobutoxyphenyl)-9-methyl-6-morpholine-9H-purine-8-yl))methyl(methyl)amino)-N-hydroxyl pyrimidine-5-formamide] | < 0.1 | > 10 | – | – |
| CN(Cc1nc2c(N3CCOCC3)nc(-c3ccco3)nc2n1C)c1ncc(C(=O)NO)cn1 [CLJ-26, 2-(((2-(2-furyl)-9-methyl-6-morpholine-9H-purine-8-yl))methyl(methyl)amino)-N-hydroxyl pyrimidine-5-formamide] | < 0.001 | > 10 | < 0.001 | – |
| CN(Cc1nc2c(N3CCOCC3)nc(-c3cccc(C(=O)N4CCN(CO)CC4)c3)nc2n1C)c1ncc(C(=O)NO)cn1 [CLJ-66, 2-(((2-(3-(4-(hydroxymethyl)piperazine-1-carbonyl)phenyl)-9-methyl-6-morpholine-9H-purine-8-yl))methyl(methyl)amino)-N-hydroxyl pyrimidine-5-formamide] | < 0.1 | > 10 | – | – |
| CN(Cc1nc2c(N3CCOCC3)nc(-c3ccc(NC(=O)OC(C)(C)C)cc3)nc2n1C)c1ncc(C(=O)NO)cn1 [CLJ-52] | < 0.1 | > 10 | – | – |
| CCCc1ccc(-c2nc(N3CCOCC3)c3nc(CN(C)c4ncc(C(=O)NO)cn4)n(C)c3n2)cc1 [CLJ-62, 2-(((2-(4-propylphenyl)-9-methyl-6-morpholine-9H-purine-8-yl))methyl(methyl)amino)-N-hydroxyl pyrimidine-5-formamide] | < 0.1 | > 10 | – | – |
| CN(Cc1nc2c(N3CCOCC3)nc(-c3cccc(NS(=O)(=O)CCCl)c3)nc2n1C)c1ncc(C(=O)NO)cn1 [CLJ-50, 2-(((2-(3-(2-chloroethylsulfonamide)phenyl)-9-methyl-6-morpholine-9H-purine-8-yl))methyl(methyl)amino)-N-hydroxyl pyrimidine-5-formamide] | – | > 10 | – | < 0.1 |
| CN(Cc1nc2c(N3CCOCC3)nc(-c3ccc(O)cc3)nc2n1C)c1ncc(C(=O)NO)cn1 [CLJ-28, 2-(((2-(4-hydroxyphenyl)-9-methyl-6-morpholine-9H-purine-8-yl))methyl(methyl)amino)-N-hydroxyl pyrimidine-5-formamide] | 0.1 to 1 | > 10 | – | – |
| CN(Cc1nc2c(N3CCOCC3)nc(-c3cccc(C(=O)NCCO)c3)nc2n1C)c1ncc(C(=O)NO)cn1 [CLJ-65, 2-(((2-(3-(N-(hydroxyethyl)acylamino)phenyl)-9-methyl-6-morpholine-9H-purine-8-yl))methyl(methyl)amino)-N-hydroxyl pyrimidine-5-formamide] | < 0.1 | > 10 | – | – |
| CN(Cc1nc2c(N3CCOCC3)nc(-c3ccc4c(c3)OCCO4)nc2n1C)c1ncc(C(=O)NO)cn1 [CLJ-37, 2-(((2-(benzo[d][1.4]dioxyheterocyclic hexylene-6-yl)-9-methyl-6-morpholine-9H-purine-8-yl))methyl(methyl)amino)-N-hydroxyl pyrimidine-5-formamide] | < 0.001 | > 10 | < 0.001 | – |
| 2-(((2-(4-((2-hydroxycaproyl)sulfydryl)phenyl)-9-methyl-6-morpholine-9H-purine-8-yl))methyl(methyl)amino)-N-hydroxyl pyrimidine-5-formamide [CLJ-42] | < 0.1 | > 10 | – | – |
| CN(C)c1ccc(-c2nc(N3CCOCC3)c3nc(CN(C)c4ncc(C(=O)NO)cn4)n(C)c3n2)cc1 [CLJ-46] | < 0.001 | > 10 | < 0.001 | – |
